Experimental data from patent publication US7220753B2, “2,7-substituted octahydro-1H-pyrido[1,2-a]pyrazine derivatives as ligands for serotonin receptors” (Pfizer Inc., priority 1994, dated 2007).
Counter-ions that a name gives are not always drawn.

First: N#Cc1cc(F)ccc1N1CCN2C[C@H](COc3ccc(F)cc3)CC[C@H]2C1 (racemic) [Example 23, (7RS,9aSR)-7-(4-Fluorophenoxy)methyl-2-(2-cyano-4-fluorophenyl)-2,3,4,6,7,8,9,9a-octahydro-1H-pyrido[1,2-a]pyrazine]
Second: Nc1cc(F)ccc1N1CCN2C[C@H](COc3ccc(F)cc3)CC[C@H]2C1 [Example 24, (7R,9aS)-7-(4-Fluorophenoxy)methyl-2-(2-amino-4-fluorophenyl)-2,3,4,6,7,8,9,9a-octahydro-1H-pyrido[1,2-a]pyrazine]
The melting point of the first is higher: 235 to 240 °C for the first, 144 to 149 °C for the second.

First: Fc1ccc2c(ccn2C[C@@H]2CC[C@H]3CN(c4ncccn4)CCN3C2)c1 (racemic) [Example 40, (7RS,9aSR)-7-(5-Fluoroindol-1-ylmethyl)-2-(pyrimidin-2-yl)-2,3,4,6,7,8,9,9a-octahydro-1H-pyrido[1,2-a]pyrazine]
Second: Fc1cnc(N2CCN3C[C@H](Cn4ccc5cc(F)ccc54)CC[C@H]3C2)nc1 [Example 43, (7R,9aS)-7-(5-Fluoroindol-1-yl)methyl-2-(5-fluoropyrimidin-2-yl)-2,3,4,6,7,8,9,9a-octahydro-1H-pyrido[1,2-a]pyrazine]
The melting point of the first is lower: 70 to 72 °C for the first, 180 to 182 °C for the second.

First: O=C1Cc2ccccc2N1C[C@@H]1CC[C@H]2CN(c3ncccn3)CCN2C1 [Example 44, 1-[(7R,9aS)-2-(Pyrimidin-2-yl)-2,3,4,6,7,8,9,9a-octahydro-1H-pyrido[1,2-a]pyrazin-7-ylmethyl]-1,3-dihydro-indol-2-one]
Second: c1ccc(O[C@@H]2CC[C@H]3CN(c4ncccn4)CCN3C2)cc1 (racemic)
The melting point of the first is higher: 174 to 176 °C for the first, 147 to 148 °C for the second.

First: Fc1ccc(OC[C@@H]2CC[C@H]3CN(c4cccnn4)CCN3C2)cc1 (racemic) (as salt: sulfate) [Example 35, (7RS,9aSR)-7-(4-Fluorophenoxy)methyl-2-(pyridazin-3-yl)-2,3,4,6,7,8,9,9a-octahydro-1H-pyrido[1,2-a]pyrazine]
Second: Fc1ccc(OC[C@@H]2CC[C@H]3CN(c4ccccn4)CCN3C2)cc1 [Example 18, (7R,9aS)-7-(4-Fluorophenoxy)methyl-2-(pyridin-2-yl)-2,3,4,6,7,8,9,9a-octahydro-1H-pyrido[1,2-a]pyrazine]
The melting point of the first is lower: 246 to 250 °C for the first, 261 to 263 °C for the second.

Compared with `Fc1ccc(OC[C@@H]2CC[C@H]3CN(c4ncc(Cl)cc4Cl)CCN3C2)cc1` (racemic) [Example 15, (7RS,9aSR)-7-(4-Fluorophenoxy)methyl-2-(3,5-dichloropyridin-2-yl)-2,3,4,6,7,8,9,9a-octahydro-1H-pyrido[1,2-a]pyrazine], `Fc1ccc(OC[C@@H]2CC[C@H]3CN(c4ccc(Cl)nn4)CCN3C2)cc1` [Example 20, (7R,9aS)-7-(4-Fluorophenoxy)methyl-2-(6-chloropyridazin-3-yl)-2,3,4,6,7,8,9,9a-octahydro-1H-pyrido[1,2-a]pyrazine] is higher in melting point: 247 to 248 °C for the first, 265 to 270 °C for the second.

First: CSc1nc(N2CCN3CC(COc4ccc(F)cc4)CCC3C2)ncc1F (stereo not drawn) [Example 6, (7RS,9aSR)-7-(4-Fluorophenoxy)methyl-2-(5-fluoro-4-thiomethyl-pyrimidin-2-yl)-2,3,4,6,7,8,9,9a-octahydro-1H-pyrido[1,2-a]pyrazine]
Second: CSc1nc(N2CCN3CC(COc4ccccc4)CCC3C2)ncc1F (stereo not drawn) [Example 4, (7RS,9aSR)-7-Phenoxymethyl-2-(5-fluoro-4-thiomethylpyrimidin-2-yl)-2,3,4,6,7,8,9,9a-octahydro-1H-pyrido[1,2-a]pyrazine]
The melting point of the first is higher: 201 to 210 °C for the first, 192 to 198 °C for the second.

First: Fc1ccc(OC[C@@H]2CCC3CN(c4ccccc4)CCN3C2)cc1 (some centres unmarked) [Example 26]
Second: Fc1ccc(OC[C@@H]2CC[C@H]3CN(c4ccc(F)cn4)CCN3C2)cc1 (racemic) [Example 28, (7RS,9aSR)-7-(4-Fluorophenoxy)methyl-2,3,4,6,7,8,9,9a-octahydro-2-(5-fluoropyridin-2-yl)-1H-pyrido[1,2-a]pyrazine]
The melting point of the first is higher: 247 to 252 °C for the first, 214 to 215 °C for the second.

Compared with `COc1cccc(N2CCN3C[C@H](COc4ccc(F)cc4)CCC3C2)n1` (stereo partly drawn) [Example 27, (7RS,9aSR)-7-(4-Fluorophenoxy)methyl-2-(6-methoxypyridin-2-yl)-2,3,4,6,7,8,9,9a octahydro-1H-pyrido[1,2-a]pyrazine], `Clc1ccc(N2CCN3C[C@H](COc4ccccc4)CC[C@H]3C2)nc1` (racemic) [Example 17, (7RS,9aSR)-7-Phenoxymethyl-2-(5-chloropyridin-2-yl)-2,3,4,6,7,8,9,9a-octahydro-1H-pyrido[1,2-a]pyrazine] is lower in melting point: 228 to 230 °C for the first, 218 to 224 °C for the second.

Compared with `O=S(=O)(C[C@@H]1CCC2CN(c3ncccn3)CCN2C1)c1ccc(F)cc1` (stereo partly drawn) [Example 42, (7RS,9aSR)-7-(4-Fluorophenylsulfonyl)methyl-2-(pyrmidin-2-yl)-2,3,4,6,7,8,9,9a-octahydro-1H-pyrido[1,2-a]pyrazine], `Fc1ccc(SC[C@@H]2CCC3CN(c4ncccn4)CCN3C2)cc1` (some centres unmarked) [Example 41] is lower in melting point: 155 to 157 °C for the first, 99 to 101 °C for the second.

First: Fc1cnc(N2CCN3C[C@H](CCc4ccccc4)CC[C@H]3C2)nc1 [Example 12, (7R,9aS)-7-(2-Phenyl)ethyl-2-(5-fluoropyrimidin-2-yl)-2,3,4,6,7,8,9,9a-octahydro-1H-pyrido[1,2-a]pyrazine]
Second: Fc1cnc(N2CCN3C[C@H](COc4ccccc4)CC[C@H]3C2)nc1 (racemic) [Example 5, (7RS,9aSR)-7-Phenoxymethyl-2-(5-fluoropyrimidin-2-yl)-2,3,4,6,7,8,9,9a-octahydro-1H-pyrido[1,2-a]pyrazine]
The melting point of the first is higher: 250 to 252 °C for the first, 215 to 217 °C for the second.

Compared with `c1ccc(OC[C@@H]2CC[C@H]3CN(c4cnccn4)CCN3C2)cc1` (racemic) [Example 30, (7RS,9aSR)-7-Phenoxymethyl-2-(pyrazin-2-yl)-2,3,4,6,7,8,9,9a-octahydro-1H-pyrido[1,2-a]pyrazine], `O=c1oc2ccccc2n1C[C@@H]1CC[C@H]2CN(c3ccc(Cl)cn3)CCN2C1` [Example 39, 3-[(7R,9aS)-2-(5-Chloropyridin-2-yl)-2,3,4,6,7,8,9,9a-octahydro-1H-pyrido[1,2-a]-pyrazin-7-ylmethyl]-3H-benzoxazol-2-one] is higher in melting point: 217 to 219 °C for the first, 247 to 248 °C for the second.

For `Clc1cncc(N2CCN3C[C@H](COc4ccccc4)CC[C@H]3C2)n1` (racemic) [Example 31, (7RS,9aSR)-7-Phenoxymethyl-2-(6-chloropyrazin-2-yl)-2,3,4,6,7,8,9,9a-octahydro-1H-pyrido[1,2-a]pyrazine], the melting point was 247 °C (dec.).
In the case of `Clc1nccc(N2CCN3C[C@H](COc4ccccc4)CC[C@H]3C2)n1` (racemic) [Example 29, (7RS,9aSR)-7-Phenoxymethyl-2-(2-chloropyrimidin-4-yl)-2,3,4,6,7,8,9,9a-octahydro-1H-pyrido[1,2-a]pyrazine], the melting point is reported as 227 to 233 °C (dec.).
In the case of `Clc1ccc(N2CCN3C[C@H](COc4ccccc4)CC[C@H]3C2)nn1` (racemic) [Example 33, (7RS,9aSR)-7-Phenoxymethyl-2-(6-chloropyridazin-3-yl)-2,3,4,6,7,8,9,9a-octahydro-1H-pyrido[1,2-a]pyrazine], the melting point is reported as > 265 °C (dec.).
In the case of `c1ccc(OC[C@@H]2CC[C@H]3CN(c4ccncn4)CCN3C2)cc1` (racemic), the melting point is reported as > 265 °C (dec.).
